# Assay results published in US7875270B2, “Treatment solution and method for preventing posterior capsular opacification by selectively inducing detachment and/or death of lens epithelial cells” (Abbott Medical Optics Inc., priority 2002, dated 2011).
# Legend:
# in vivo rabbit eyes [1] = experiment: In vivo prevention of PCO after cataract operation in rabbit eyes; conditions: IOLs coated with 300 μm NEM in PBS, dried overnight, inserted into the lens capsular bag
# in vivo rabbit eyes [2] = experiment: as above; conditions: 200 or 300 μm NEM in PBS or 170 mM monnitol
# Method: The experimental group includes sixteen rabbit eyes and the control group includes four rabbit eyes. A sham cataract operation is performed on the control animals. The therapy is introduced to the others.
# The pupil of each rabbit eye is preoperatively dilated with topical G Phenylephrine 10% (Alcon Labs., Inc., China) and G Cyclopentolate 1% (Bausch & Lomb Pharm., Inc., USA) three times in one hour. The rabbits are anesthetized with ketamine hydrochloride (5 mg kg-1) and xylazine hydrochloride (2 mg kg-1) and placed on an operating table. A topical anesthetic (Dieaine hydrochloride 1%) is used every five minutes on two occasions. A wire lid speculum is placed to hold the eyelids open.
# A 3.2 mm scleral tunnel incision into the eye is formed at the temporal limbus. The anterior chamber is maintained with viscoelastic substances and a 4-5 mm diameter continuous curvilinear capsularhexis (CCC) is made on the anterior surface of the lens to open its bag. The treatment solution is first introduced in the LECs by hydrodissection. This ensures that the treatment fluid immediately reaches under the entire anterior capsule/LECs. This process allows for (i) separation of the lens cortex from the capsule and lens epithelium, making removal of the lens cortex easier at a later stage of the operation and (ii) the LECs to be exposed to the treatment for enough time (more than five minutes in total time).
# The crystalline lens is then removed using phacoemulsification (Universal II, Alcon Labs., Inc., China). The remaining cortex is aspirated thoroughly and removed as completely as possible to expose the LECs. The lens capsular bag is then partially filed with viscoelastic material in order to maintain its shape. The viscoelastic material should not cover the LECs when the treatment solution is applied.
# The treatment is spread over the inner surface of the anterior capsular bag (where the LECs attach). The anterior capsular is continuously filled by using a syringe with a bent needle. Care is taken not to over flow the bag. After the treatment solution covered the capsule bag, it is left for five minutes and then removed using a syringe.
# In a few cases, IOLs are inserted. […] At the same time, the incision is enlarged to 6.0 mm and a posterior ocular lens (IOLs) (poly-methyl methacrylate, PMMA) with a 6.5 mm optic is prepared and placed into the capsular bag.
# The wound is closed with or without suture.
# At the completion of the surgical procedure, each rabbit eye receives subconjunctival dexamethasone (0.25 ml) and gentamicin (0.25 ml). Postoperatively, atropine sulphate 1% ophthalmic solution and neomycin sulphate-polymyxin sulphate-dexamethasone ophthalmic ointment are administered twice daily for three weeks.
# The animals are evaluated for three weeks and ten weeks. […] All rabbits are evaluated by slitlamp and scored for ocular responses at 1 day and at 1, 2 and 3 weeks. (See FIG. 17, Table 1.) Three and ten weeks after surgery, the animals are anesthetized using a 2 ml intramuscular injection of 11:1 mixture of ketamine hydrochloride and xylazine 20 mg/ml and then killed with a 2 ml intravenous injection of sodium pentobarbital.
# The eye globes are enucleated (some of them fixed in neutral buffered formalin 10% solution for 24 hours) and are bisected coronally just anterior to the equator. Gross examination is performed to assess. PCO development. Photographs are taken from behind (Miyake-Apple posterior photographic technique) by using a digital camera fitted to an operating microscope (Leica/Wild MZ-8, Vashaw Scientific, Inc.).
# The extent and severity of PCO is scored (see FIG. 17, Table 1) according to methods reported in the literature. The lens capsules are then fixed and evaluated under a microscope (Olumpus, Optical Co. Ltd.) and photographed with a digital camera.
# [3] = test system: human LECs-CCCs freshly removed from cataract operation; experiment: In situ treatment of LECs attached to capsulorhexis lens capsule (LECs-CCC); type: cell-based; conditions: 200 or 300 μm NEM in PBS
# Method: The in situ effects of a treatment solution comprising dihydrochlorothiazide (DHCT) (a cotransport interference agent from the group of the thiazide and related diuretics) and hyperosmotic NaCl on human LECs is examined. The treatment is tested on LECs that are still attached to a continuous curvilinear capsulorhexis lens capsule (LECs-CCC) which are freshly removed from a human cataract operation.
# The LECs-CCCs are obtained from a cataract operation and immediately put in freshly prepared Eagle's Minimum Essential Medium (MEM) supplemented with 2 mM glutamine, 25 mmol/L Hepes (pH 7.4) without foetal cow serum (FCS) and is transferred to the laboratory for evaluation. Viable LECs are identified by staining the LECs-CCCs for five minutes with 0.2% Trypan Blue. The sheets containing more than 70% viable LECs are used to assess the efficacy of the treatment. […]
# In the first step, a hyperosmotic solution of NaCl is prepared by making a stock solution of 2 M NaCl by adding 58.44 g NaCl (supplied by Sigma Chemical Co., U.S.) to 500 ml dH2O. The desired concentration of osmotic NaCl is prepared by diluting the 2M stock solution with dH2O. For example, to make a hyperosmotic solution of 170 mM NaCl, the 2M NaCl stock solution was diluted with dH2O at a ratio of […]. To make a hyperosmotic solution of 200 mM NaCl, the 2M NaCl stock solution is diluted with dH2O at a ratio of 1 to 9. Final osmolarities (mOsm/kg/H2O) are determined by a freezing point depression method using cryoscopic osmometry.
# In the second step, DHCT stock solution is made by adding 25 mg DHCT to 1 ml dH2O. […]
# The treatment is applied by exposing the LECs-CCCs for five minutes in a small petri dish containing the treatment solution. The treatment solution is removed after five minutes exposure by a syringe and then the fresh PBS is added in the petri dish to wash away the treatment solution. The LECs-CCCs are washed three times. The changes of the LECS are monitored under a microscope. Microscope photographs are taken at 0, 2 and 5 minutes and after wash.
smiles,measurement,setting,value
"CCN1C(=O)C=CC1=O [NEM, N-ethylmaleimide]",anterior chamber (AC) reaction,in vivo rabbit eyes [1],significantly reduces the AC reaction
same,LECs on the lens capsule bag under microscope,in vivo rabbit eyes [2],no LECs on the lens capsule bag
same,development of CPCO or PPCO,in vivo rabbit eyes [2]; 3 and 10 weeks follow up,no CPCO or PPCO develops
same,intraocular inflammatory reaction,in vivo rabbit eyes [2]; solution introduced directly,heavy intraocular inflammatory reaction in the early period and posterior synechiae
same,LEC changes after five minutes of acute exposure,[3],almost no changes are observed
same,LEC changes once put into PBS washing solution,[3]; after treatment,shrink and large gaps form between the cells. The shrunken cells then detach
